Reference: patent publication US20180071354A1, “SELECTIVE BREEDING METHOD OF ANTITUMOR/ANTICANCER CAMELLIA SINENSIS STRAIN, AND TEA PRODUCT OF SUCH STRAIN” (FUJIAN AGRICULTURE AND FORESTRY UNIVERSITY, priority 2015, published 2018)

Key:
Assay type in all cases: cell-based
Conditions in all cases: 48 h
[1] = tested on: human gastric cancer cell line SMMC-7721; experiment: In vitro antitumor/anticancer testing (CCK-8), SMMC-7721
Method: (§1) Each of Tea Product 1 and Conventional Tea Product obtained in section A of this example was used to prepare test tea samples according to the method described below. A proper amount of the respective tea product was added into sterile water to prepare a stock solution with a concentration of 100 mg/mL, followed by using a membrane filter with a pore size of 0.22 μm to conduct vacuum filtration and sterilization. The resulting stock solution was diluted with a respective complete medium shown in Table 3 below to form test tea samples with different concentrations. In other words, the thus obtained test tea samples to be used for treating a respective cancer/tumor cell line shown in Table 3 were prepared using the same complete medium as that for the respective cancer/tumor cell line. […] Specifically, each of the aforesaid commercially available agents was subjected to the method described below to prepare comparative test samples. A proper amount of a respective commercially available agent was dissolved in phosphate-buffered saline (PBS) to prepare a stock solution with a concentration of 5 mg/mL, followed by using a membrane filter with a pore size of 0.22 μm to conduct vacuum filtration and sterilization. The resulting stock solution was diluted with a respective complete medium shown in Table 3 below to form comparative test samples with different concentrations. To be specific, the comparative test samples prepared from the respective commercially available agent have the concentrations shown in Table 2 below. The thus obtained comparative test samples to be used for treating a respective cancer/tumor cell line shown in Table 3 were prepared using the same complete medium as that for the respective cancer/tumor cell line. […] The cultivation of each cancer/tumor cell line is described as follows. […] Afterwards, a cell suspension having a cell density of 1.0×10^4 cells/mL was prepared. […] As experimental groups, the tumor/cancer cells of each cell line were treated with the test tea samples prepared from one or more of the tea products and the comparative test samples prepared from one or more of the commercially available agents as obtained in section B of this example (for more detailed information about the tea product(s) and the commercially available product (s) used to treat each cell line, please see Table 4 below). To be specific, 6 to 10 test tea samples prepared from the same tea product and having different concentrations, as well as 6 to 10 comparative test samples prepared from the same commercially available agent and having different concentrations, were utilized to treat the tumor/cancer cells of each cell line. For each experimental group, 6 repetitions of tumor/cancer treatment were performed. For the control group, 100 μL of PBS was added to a well containing the medium and the cancer/tumor cells of the respective cell line. For the blank group, 100 μL of PBS was added to a well containing a complete medium the same as that used for cultivation of the cancer/tumor cells of the respective cell line. After the treatment described above, cultivation was conducted in an incubator (37° C., 100% relative humidity, 5% CO2) for 48 hours. Subsequently, the liquid containing the medium and the sample in the well was removed, and a respective complete medium (shown in Table 3 above) containing 10% CCK-8 (Cell Counting Kit-8)(Dojindo Molecular Technologies, Inc., Cat. No. CK04-13) was added. Cultivation was performed in an incubator (37° C.) for 2 to 4 hours, followed by gently shaking.

[2] = tested on: human gastric cancer cell line BGC-823; experiment: In vitro antitumor/anticancer testing (CCK-8), BGC-823
Method: as §1

[3] = tested on: human lung cancer cell line A549; experiment: In vitro antitumor/anticancer testing (CCK-8), A549
Method: as §1

[4] = tested on: human squamous cell carcinoma cell line A431; experiment: In vitro antitumor/anticancer testing (CCK-8), A431
Method: as §1

[5] = tested on: human colon cancer cell line HCT-116; experiment: In vitro antitumor/anticancer testing (CCK-8), HCT-116
Method: as §1

[6] = tested on: human glioblastoma cell line U-87MG; experiment: In vitro antitumor/anticancer testing (CCK-8), U-87MG
Method: as §1

[7] = tested on: human leukemia cell line HL-60; experiment: In vitro antitumor/anticancer testing (CCK-8), HL-60
Method: as §1

SMILES: O=C(O[C@@H]1Cc2c(O)cc(O)cc2O[C@@H]1c1cc(O)c(O)c(O)c1)c1cc(O)c(O)c(O)c1 [EGCG monomer, epigallocatechin gallate]
- Percent growth inhibition ([1]; 2.5 μg/mL): 4.93%
- Percent growth inhibition ([1]; 5 μg/mL): 3.31%
- Percent growth inhibition ([1]; 10 μg/mL): 3.45%
- Percent growth inhibition ([1]; 20 μg/mL): 1.33%
- Percent growth inhibition ([1]; 40 μg/mL): 6.33%
- Percent growth inhibition ([1]; 80 μg/mL): 40.85%
- Percent growth inhibition ([1]; 160 μg/mL): 92.58%
- Percent growth inhibition ([1]; 320 μg/mL): 98.50%
- Percent growth inhibition ([1]; 640 μg/mL): 97.44%
- Percent growth inhibition ([2]; 2.5 μg/mL): −0.82%
- Percent growth inhibition ([2]; 5 μg/mL): −1.06%
- Percent growth inhibition ([2]; 10 μg/mL): −0.64%
- Percent growth inhibition ([2]; 20 μg/mL): 6.47%
- Percent growth inhibition ([2]; 40 μg/mL): 28.02%
- Percent growth inhibition ([2]; 80 μg/mL): 60.53%
- Percent growth inhibition ([2]; 160 μg/mL): 97.87%
- Percent growth inhibition ([2]; 320 μg/mL): 98.16%
- Percent growth inhibition ([2]; 640 μg/mL): 97.03%
- IC50 ([2]; BGC-823): IC50 (μg/mL) = 62.94
- Percent growth inhibition ([3]; 0.625 μg/mL): 6.69%
- Percent growth inhibition ([3]; 1.25 μg/mL): 5.92%
- Percent growth inhibition ([3]; 2.5 μg/mL): 7.35%
- Percent growth inhibition ([3]; 5 μg/mL): 6.76%
- Percent growth inhibition ([3]; 10 μg/mL): 9.62%
- Percent growth inhibition ([3]; 20 μg/mL): 23.21%
- Percent growth inhibition ([3]; 40 μg/mL): 35.39%
- Percent growth inhibition ([3]; 80 μg/mL): 60.18%
- IC50 ([3]; A549): IC50 (μg/mL) = 59.74
- Percent growth inhibition ([4]; 0.3125 μg/mL): 7.79%
- Percent growth inhibition ([4]; 0.625 μg/mL): 13.31%
- Percent growth inhibition ([4]; 1.25 μg/mL): 10.00%
- Percent growth inhibition ([4]; 2.5 μg/mL): 12.70%
- Percent growth inhibition ([4]; 5 μg/mL): 19.18%
- Percent growth inhibition ([4]; 10 μg/mL): 24.03%
- Percent growth inhibition ([4]; 20 μg/mL): 34.07%
- Percent growth inhibition ([4]; 40 μg/mL): 55.14%
- Percent growth inhibition ([4]; 80 μg/mL): 30.13%
- IC50 ([4]; A431): IC50 (μg/mL) = 29.51
- Percent growth inhibition ([5]; 2.5 μg/mL): 10.74%
- Percent growth inhibition ([5]; 5 μg/mL): −7.91%
- Percent growth inhibition ([5]; 10 μg/mL): −4.12%
- Percent growth inhibition ([5]; 20 μg/mL): −1.58%
- Percent growth inhibition ([5]; 40 μg/mL): 34.52%
- Percent growth inhibition ([5]; 80 μg/mL): 66.98%
- IC50 ([5]; HCT-116): IC50 (μg/mL) = 55.72
- Percent growth inhibition ([6]; 2.5 μg/mL): 2.29%
- Percent growth inhibition ([6]; 5 μg/mL): 2.94%
- Percent growth inhibition ([6]; 10 μg/mL): 5.82%
- Percent growth inhibition ([6]; 20 μg/mL): 15.72%
- Percent growth inhibition ([6]; 40 μg/mL): 15.15%
- Percent growth inhibition ([6]; 80 μg/mL): 2.45%
- Percent growth inhibition ([6]; 160 μg/mL): 82.81%
- Percent growth inhibition ([6]; 320 μg/mL): 98.43%
- Percent growth inhibition ([6]; 640 μg/mL): 98.03%
- IC50 ([6]; U-87MG): IC50 (μg/mL) = 76.85
- Percent growth inhibition ([7]; 2.5 μg/mL): 5.10%
- Percent growth inhibition ([7]; 5 μg/mL): 12.43%
- Percent growth inhibition ([7]; 10 μg/mL): 16.22%
- Percent growth inhibition ([7]; 20 μg/mL): 27.14%
- Percent growth inhibition ([7]; 40 μg/mL): 44.21%
- Percent growth inhibition ([7]; 80 μg/mL): 76.96%
- Percent growth inhibition ([7]; 160 μg/mL): 73.03%
- Percent growth inhibition ([7]; 320 μg/mL): 83.90%
- Percent growth inhibition ([7]; 640 μg/mL): 91.13%
- IC50 ([7]; HL-60): IC50 (μg/mL) = 44.96
